{"source": "patent US6472391B2", "about": "“Nitrogen-containing heterocyclic compounds” (Millennium Pharmaceuticals, Inc., priority 1996, dated 2002)", "key": {"[1]": {"target": "T1, human β-PDGF receptor (Homo sapiens, UniProt P09619)", "T1 construct": "expressed in transfected cells; host or cells: Chinese hamster ovary cells (CHO)", "T1 sequence (P09619 33-1106)": "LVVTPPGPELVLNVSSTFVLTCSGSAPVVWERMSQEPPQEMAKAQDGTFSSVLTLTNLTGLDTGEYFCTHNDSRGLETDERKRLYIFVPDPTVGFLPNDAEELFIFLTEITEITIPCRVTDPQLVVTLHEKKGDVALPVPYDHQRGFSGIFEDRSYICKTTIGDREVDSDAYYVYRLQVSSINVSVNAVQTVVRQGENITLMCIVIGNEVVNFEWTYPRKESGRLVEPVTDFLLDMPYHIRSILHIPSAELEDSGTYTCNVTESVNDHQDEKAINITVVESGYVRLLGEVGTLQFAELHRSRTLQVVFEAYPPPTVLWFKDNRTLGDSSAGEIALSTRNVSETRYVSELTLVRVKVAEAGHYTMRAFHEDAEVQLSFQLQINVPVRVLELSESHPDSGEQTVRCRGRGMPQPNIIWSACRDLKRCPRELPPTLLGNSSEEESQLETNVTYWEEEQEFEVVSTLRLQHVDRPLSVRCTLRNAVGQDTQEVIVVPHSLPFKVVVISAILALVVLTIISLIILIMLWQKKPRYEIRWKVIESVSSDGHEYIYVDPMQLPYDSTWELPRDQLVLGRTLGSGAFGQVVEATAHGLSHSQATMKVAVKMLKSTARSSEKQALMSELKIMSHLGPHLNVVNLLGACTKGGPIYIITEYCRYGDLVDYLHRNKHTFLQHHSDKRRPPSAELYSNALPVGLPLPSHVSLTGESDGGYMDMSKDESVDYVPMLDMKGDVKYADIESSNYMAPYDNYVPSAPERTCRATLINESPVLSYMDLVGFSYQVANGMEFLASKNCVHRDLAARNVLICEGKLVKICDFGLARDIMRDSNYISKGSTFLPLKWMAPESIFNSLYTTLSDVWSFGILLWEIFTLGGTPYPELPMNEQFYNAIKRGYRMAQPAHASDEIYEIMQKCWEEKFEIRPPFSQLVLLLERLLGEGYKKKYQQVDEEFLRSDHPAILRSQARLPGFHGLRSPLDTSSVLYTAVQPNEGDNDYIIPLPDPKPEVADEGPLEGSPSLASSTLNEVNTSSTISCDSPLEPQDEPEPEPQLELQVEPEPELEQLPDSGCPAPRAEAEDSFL", "assay": "Inhibitory effect on phosphorylation of PDGF receptor", "format": "cell-based", "conditions": "CHO cells expressing human β-PDGF receptor", "method": "Test Example 1 Inhibitory Effect on Phosphorylation of PDGF Receptor\nThe test was carried out according to the method described in the literature [Dah-Shuhn et al., J. Biol. Chem., 266, 413-418 (1991)], using Chinese hamster ovary cells (CHO) wherein human β-PDGF receptor cDNA was introduced and expressed."}}, "data": [{"smiles": "COc1cc2ncnc(N3CCN(C(=S)Nc4ccc5c(c4)CCC5)CC3)c2cc1OC", "note": "[Compound 9, 4-(6,7-Dimethoxy-4-quinazolinyl)-N-(5-indanyl)-1-piperazinethiocarboxamide]", "values": [{"measurement": "IC50", "setting": "[1]", "value": 670, "unit": "nM"}, {"measurement": "melting point", "value": "207 to 210", "unit": "°C"}]}, {"smiles": "COc1cc2ncnc(N3CCN(C(=O)Nc4ccc(Cl)c(Cl)c4)CC3)c2cc1OC", "note": "[Compound 54, N-(3,4-Dichlorophenyl)-4-(6,7-dimethoxy-4-quinazolinyl)-1-piperazinecarboxamide]", "values": [{"measurement": "IC50", "setting": "[1]", "value": 710, "unit": "nM"}, {"measurement": "melting point", "value": "221 to 222", "unit": "°C"}]}, {"smiles": "COc1cc2ncnc(N3CCN(C(=S)Nc4ccc(N(C)C)cc4)CC3)c2cc1OC", "note": "[Compound 71, 4-(6,7-Dimethoxy-4-quinazolinyl)-N-(4-dimethylaminophenyl)-1-piperazinethiocarboxamide]", "values": [{"measurement": "IC50", "setting": "[1]", "value": 940, "unit": "nM"}, {"measurement": "melting point", "value": "226 to 227", "unit": "°C"}]}, {"smiles": "COc1cc2ncnc(N3CCN(C(=S)NCc4cccnc4)CC3)c2cc1OC", "note": "[Compound 98, 4-(6,7-Dimethoxy-4-quinazolinyl)-N-(3-picolyl)-1-piperazinethiocarboxamide]", "values": [{"measurement": "IC50", "setting": "[1]", "value": 220, "unit": "nM"}, {"measurement": "melting point", "value": "104 to 106", "unit": "°C"}]}, {"smiles": "CCOc1cc2ncnc(N3CCN(C(=O)Nc4ccc([N+](=O)[O-])cc4)CC3)c2cc1OCC", "note": "[Compound 105, 4-(6,7-Diethoxy-4-quinazolinyl)-N-(4-nitrophenyl)-1-piperazinecarboxamide]", "values": [{"measurement": "IC50", "setting": "[1]", "value": 440, "unit": "nM"}, {"measurement": "melting point", "value": "120 to 121", "unit": "°C"}]}, {"smiles": "COc1cc2ncnc(N3CCN(C(=S)NCCCc4ccccc4)CC3)c2cc1OC", "note": "[Compound 135, 4-(6,7-Dimethoxy-4-quinazolinyl)-N-(3-phenylpropyl)-1-piperazinethiocarboxamide]", "values": [{"measurement": "IC50", "setting": "[1]", "value": 460, "unit": "nM"}, {"measurement": "melting point", "value": "147 to 148", "unit": "°C"}]}, {"smiles": "COc1cc2ncnc(N3CCN(C(=S)NCc4cccc(Cl)c4)CC3)c2cc1OC", "note": "[Compound 177, N-(3-Chlorobenzyl)-4-(6,7-dimethoxy-4-quinazolinyl)-1-piperazinethiocarboxamide]", "values": [{"measurement": "IC50", "setting": "[1]", "value": 770, "unit": "nM"}, {"measurement": "melting point", "value": "117 to 119", "unit": "°C"}]}, {"smiles": "COc1cc2ncnc(N3CCN(C(=O)NCc4ccc(Cl)cc4)CC3)c2cc1OC", "note": "[Compound 178, N-(4-Chlorobenzyl)-4-(6,7-dimethoxy-4-quinazolinyl)-1-piperazinecarboxamide]", "values": [{"measurement": "IC50", "setting": "[1]", "value": 410, "unit": "nM"}, {"measurement": "melting point", "value": "203 to 204", "unit": "°C"}]}, {"smiles": "COc1cc2ncnc(N3CCN(C(=S)NCCc4ccc(Cl)cc4)CC3)c2cc1OC", "note": "[Compound 180, N-[2-(4-Chlorophenyl)ethyl]-4-(6,7-dimethoxy-4-quinazolinyl)-1-piperazinethiocarboxamide]", "values": [{"measurement": "IC50", "setting": "[1]", "value": 1000, "unit": "nM"}, {"measurement": "melting point", "value": "106 to 109", "unit": "°C"}]}, {"smiles": "COc1cc2ncnc(N3CCN(C(=O)NCc4ccc(OC(F)(F)F)cc4)CC3)c2cc1OC", "note": "[Compound 203, 4-(6,7-Dimethoxy-4-quinazolinyl)-N-(4-trifluoromethoxybenzyl)-1-piperazinecarboxamide]", "values": [{"measurement": "IC50", "setting": "[1]", "value": 1390, "unit": "nM"}, {"measurement": "melting point", "value": "176 to 177", "unit": "°C"}]}, {"smiles": "O=C(Nc1ccc(Oc2ccccc2)cc1)N1CCN(c2ccnc3c(Cl)cccc23)CC1", "note": "[Compound 412, 4-(8-Chloro-4-quinolyl)-N-(4-phenoxyphenyl)-1-piperazinecarboxamide]", "values": [{"measurement": "melting point", "value": "174 to 175", "unit": "°C"}]}, {"smiles": "Cc1ccc2nc(C(F)(F)F)cc(N3CCN(C(=O)Nc4ccc(Oc5ccccc5)cc4)CC3)c2c1[N+](=O)[O-]", "note": "[Compound 413, 4-(6-Methyl-5-nitro-2-trifluoromethyl-4-quinolyl)-N-(4-phenoxyphenyl)-1-piperazinecarboxamide]", "values": [{"measurement": "melting point", "value": "197 to 198", "unit": "°C"}]}, {"smiles": "O=C(Nc1ccc(Oc2ccccc2)cc1)N1CCN(c2nncc3ccccc23)CC1", "note": "[Compound 414, N-(4-Phenoxyphenyl)-4-(1-phthalazinyl)-1-piperazinecarboxamide]", "values": [{"measurement": "melting point", "value": "202 to 203", "unit": "°C"}]}, {"smiles": "O=C(Nc1ccc(Oc2ccccc2)cc1)N1CCN(c2nnc(Cl)c3ccccc23)CC1", "note": "[Compound 416, 4-(4-Chloro-1-phthalazinyl)-N-(4-Phenoxyphenyl)-1-piperazinecarboxamide]", "values": [{"measurement": "melting point", "value": "196 to 197", "unit": "°C"}]}, {"smiles": "O=C(Nc1ccc(Oc2ccccc2)cc1)N1CCN(c2nnc(Cc3ccccc3)c3ccccc23)CC1", "note": "[Compound 418, 4-(4-Benzyl-1-phthalazinyl)-N-(4-phenoxyphenyl)-1-piperazinecarboxamide]", "values": [{"measurement": "melting point", "value": "100 to 101", "unit": "°C"}]}, {"smiles": "CCn1c(=O)n(CC)c2cc3c(N4CCN(C(=O)Nc5ccc(Oc6ccccc6)cc5)CC4)nncc3cc21", "note": "[Compound 419, 4-(1,3-Diethyl-1,3-dihydro-2-oxo-2H-imidazo[4,5-g]phthalazin-5-yl)-N-(4-phenoxyphenyl)-1-piperazinecarboxamide]", "values": [{"measurement": "melting point", "value": "125 to 128", "unit": "°C"}]}, {"smiles": "CCn1c(=O)n(CC)c2cc3c(N4CCN(C(=O)Nc5ccc(Oc6ccccc6)cc5)CC4)nnc(Cl)c3cc21", "note": "[Compound 421, 4-(5-Chloro-1,3-diethyl-1,3-dihydro-2-oxo-2H-imidazo[4,5-g]phthalazin-8-yl)-N-(4-phenoxyphenyl)-1-piperazinecarboxamide]", "values": [{"measurement": "melting point", "value": "172 to 173", "unit": "°C"}]}, {"smiles": "O=C(Nc1ccc(Oc2ccccc2)cc1)N1CCN(c2nccc3ccccc23)CC1", "note": "[Compound 422, 4-(1-Isoquinolyl)-N-(4-phenoxyphenyl)-1-piperazinecarboxamide]", "values": [{"measurement": "melting point", "value": "122 to 123", "unit": "°C"}]}, {"smiles": "COc1cc2ccnc(N3CCN(C(=O)Nc4ccc(Oc5ccccc5)cc4)CC3)c2cc1OC", "note": "[Compound 423, 4-(6,7-Dimethoxy-1-isoquinolyl)-N-(4-phenoxyphenyl)-1-piperazinecarboxamide]", "values": [{"measurement": "melting point", "value": "178 to 179", "unit": "°C"}]}, {"smiles": "COc1cc2ccnc(N3CCN(C(=S)NCc4ccccc4)CC3)c2cc1OC", "note": "[Compound 424, N-Benzyl-4-(6,7-dimethoxy-1-isoquinolyl)-1-piperazinethiocarboxamide]", "values": [{"measurement": "melting point", "value": "171 to 172", "unit": "°C"}]}, {"smiles": "COc1cc2nncc(N3CCN(C(=O)Nc4ccc(Oc5ccccc5)cc4)CC3)c2cc1OC", "note": "[Compound 426, 4-(6,7-Dimethoxy-4-cinnolinyl)-N-(4-phenoxyphenyl)-1-piperazinecarboxamide]", "values": [{"measurement": "melting point", "value": "165 to 167", "unit": "°C"}]}, {"smiles": "COc1cc2nncc(N3CCN(C(=S)NCc4cccnc4)CC3)c2cc1OC", "note": "[Compound 427, 4-(6,7-Dimethoxy-4-cinnolinyl)-N-(3-picolyl)-1-piperazinethiocarboxamide]", "values": [{"measurement": "melting point", "value": "181 to 190", "unit": "°C"}]}, {"smiles": "COc1cc2ncnc(N3CCCN(C(=O)Nc4ccc(Oc5ccccc5)cc4)CC3)c2cc1OC", "note": "[Compound 435, 4-(6,7-Dimethoxy-4-quinazolinyl)-N-(4-phenoxyphenyl)-1-homopiperazinecarboxamide]", "values": [{"measurement": "melting point", "value": "93 to 96", "unit": "°C"}]}, {"smiles": "COc1cc2ncnc(N3CCCN(C(=S)NCc4ccccc4)CC3)c2cc1OC", "note": "[Compound 436, N-Benzyl-4-(6,7-dimethoxy-4-quinazolinyl)-1-homopiperazinethiocarboxamide]", "values": [{"measurement": "melting point", "value": "86 to 88", "unit": "°C"}]}, {"smiles": "COc1cc2ncnc(N3CCN(C(=S)NCC(=O)c4ccccc4)CC3)c2cc1OC", "note": "[Compound 445, 4-(6,7-Dimethoxy-4-quinazolinyl)-N-phenacyl-1-piperazinethiocarboxamide]", "values": [{"measurement": "melting point", "value": "99 to 100", "unit": "°C"}]}, {"smiles": "COc1cc2ncnc(N3CCN(C(=S)NCC4(c5ccc(Cl)cc5)CC4)CC3)c2cc1OC", "note": "[Compound 446, N-[1-(4-Chlorophenyl)cyclopropylmethyl]-4-(6,7-dimethoxy-4-quinazolinyl)-1-piperazinethiocarboxamide]", "values": [{"measurement": "melting point", "value": "108 to 111", "unit": "°C"}]}]}
